# “And” between values parts separate entries of the source, which are not always exact repeats. Equal entries are not always repeated. The source made the active and inactive calls.
# Columns and labels:
# [1] = biological target: DNA dC->dU-editing enzyme APOBEC-3G (Homo sapiens, UniProt Q9HC16); experiment: inhibition of APOBEC3G ssDNA deamination – biochemical, fluorescence, single-stranded DNA substrate, SAR follow-up (AID 602136); format: functional; details: read-out: IC50_Mean
# [2] = biological target: DNA dC->dU-editing enzyme APOBEC-3A (Homo sapiens, UniProt P31941); experiment: SAR analysis of small molecule inhibitors of APOBEC3A DNA Deaminase via a fluorescence-based single-stranded DNA deaminase assay.; format: functional; details: read-out: IC50_Mean
# Sequence of DNA dC->dU-editing enzyme APOBEC-3A (P31941 whole entry): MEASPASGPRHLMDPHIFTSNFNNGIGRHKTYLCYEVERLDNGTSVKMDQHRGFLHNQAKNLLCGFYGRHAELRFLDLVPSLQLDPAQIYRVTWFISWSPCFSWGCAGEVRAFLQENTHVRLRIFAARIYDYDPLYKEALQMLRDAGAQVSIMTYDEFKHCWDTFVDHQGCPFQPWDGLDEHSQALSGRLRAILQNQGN
# [3] = biological target: T1, ATP-dependent translocase ABCB1 (Homo sapiens, UniProt P08183); experiment: inhibition of BCRP-mediated JC-1 efflux – Ig-MXP3 cells, flow cytometry, set 2, dose response (AID 504566); format: functional; details: read-out: EC50_MICROM_;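 also: flow cytometry median green fluorescence of retained JC-1 dye; potency of efflux pump inhibition measured as rising substrate retention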
# T1 sequence (P08183 whole entry): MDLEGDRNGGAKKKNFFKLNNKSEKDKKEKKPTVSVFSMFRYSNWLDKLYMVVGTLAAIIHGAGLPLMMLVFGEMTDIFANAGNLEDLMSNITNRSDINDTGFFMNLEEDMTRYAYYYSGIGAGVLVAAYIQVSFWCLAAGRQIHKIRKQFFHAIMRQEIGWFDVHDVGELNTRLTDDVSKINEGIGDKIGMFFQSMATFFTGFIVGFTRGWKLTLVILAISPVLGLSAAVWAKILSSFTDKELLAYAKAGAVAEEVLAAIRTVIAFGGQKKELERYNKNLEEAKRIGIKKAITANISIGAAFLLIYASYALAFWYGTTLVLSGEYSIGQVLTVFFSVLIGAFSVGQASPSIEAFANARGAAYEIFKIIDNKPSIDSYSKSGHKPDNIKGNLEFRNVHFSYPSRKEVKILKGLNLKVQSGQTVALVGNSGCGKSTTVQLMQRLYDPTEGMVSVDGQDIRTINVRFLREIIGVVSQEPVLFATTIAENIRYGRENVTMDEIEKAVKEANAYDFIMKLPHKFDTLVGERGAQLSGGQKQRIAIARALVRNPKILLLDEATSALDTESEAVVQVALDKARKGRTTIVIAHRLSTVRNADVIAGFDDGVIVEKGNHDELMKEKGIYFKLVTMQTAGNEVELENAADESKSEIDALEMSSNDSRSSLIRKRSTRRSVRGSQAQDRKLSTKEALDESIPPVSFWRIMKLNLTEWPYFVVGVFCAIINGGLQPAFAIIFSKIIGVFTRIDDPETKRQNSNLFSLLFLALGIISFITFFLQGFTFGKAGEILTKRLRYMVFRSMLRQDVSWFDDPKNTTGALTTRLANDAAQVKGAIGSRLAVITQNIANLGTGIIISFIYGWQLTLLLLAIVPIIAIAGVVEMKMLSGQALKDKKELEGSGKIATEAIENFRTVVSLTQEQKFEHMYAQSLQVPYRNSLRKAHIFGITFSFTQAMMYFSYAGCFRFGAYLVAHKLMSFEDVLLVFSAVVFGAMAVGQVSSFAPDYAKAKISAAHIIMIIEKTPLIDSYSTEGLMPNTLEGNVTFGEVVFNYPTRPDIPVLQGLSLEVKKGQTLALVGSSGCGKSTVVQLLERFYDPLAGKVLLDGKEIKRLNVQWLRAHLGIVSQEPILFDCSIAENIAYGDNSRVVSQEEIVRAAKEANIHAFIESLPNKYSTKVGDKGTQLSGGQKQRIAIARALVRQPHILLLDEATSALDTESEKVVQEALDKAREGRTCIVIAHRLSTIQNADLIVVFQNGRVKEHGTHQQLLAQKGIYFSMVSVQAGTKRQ
# [4] = biological target: T1, ATP-dependent translocase ABCB1; experiment: P-gp JC-1 efflux blockade concentration-response – Jurkat-DNR cells, flow cytometry, set 2, dose response (AID 504569); format: functional; details: read-out: EC50_MICROM_;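 also: potency of pump inhibitors that raise cellular JC-1 green fluorescence up to the nicardipine level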
# [5] = biological target: Induced myeloid leukemia cell differentiation protein Mcl-1 (Homo sapiens, UniProt Q07820); format: functional
# Sequence of Induced myeloid leukemia cell differentiation protein Mcl-1 (Q07820 whole entry): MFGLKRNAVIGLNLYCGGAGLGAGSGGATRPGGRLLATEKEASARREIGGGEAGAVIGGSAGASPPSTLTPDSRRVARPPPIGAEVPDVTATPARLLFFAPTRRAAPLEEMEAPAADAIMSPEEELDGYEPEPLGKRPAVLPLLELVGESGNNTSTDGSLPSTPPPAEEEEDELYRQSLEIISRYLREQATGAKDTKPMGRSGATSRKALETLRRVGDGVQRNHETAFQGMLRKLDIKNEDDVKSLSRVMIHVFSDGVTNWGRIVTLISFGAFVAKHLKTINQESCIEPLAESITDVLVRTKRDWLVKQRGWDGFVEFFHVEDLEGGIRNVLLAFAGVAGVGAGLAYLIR
# [6] = biological target: T2, Low molecular weight phosphotyrosine protein phosphatase (Homo sapiens, UniProt P24666); format: functional; details: read-out: IC50_Mean
# T2 sequence (P24666 whole entry): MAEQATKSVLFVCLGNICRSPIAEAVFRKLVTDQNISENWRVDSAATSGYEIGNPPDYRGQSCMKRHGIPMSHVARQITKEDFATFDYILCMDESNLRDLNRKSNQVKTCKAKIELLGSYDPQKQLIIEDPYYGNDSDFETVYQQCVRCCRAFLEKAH
# [7] = biological target: T2, Low molecular weight phosphotyrosine protein phosphatase; format: functional; details: read-out: IC50_Mean; remark: listed apart in the source
# [8] = biological target: T3, Tyrosine-protein phosphatase non-receptor type 22 (Homo sapiens, UniProt Q9Y2R2); experiment: PTPN22 enzyme inhibitors – biochemical, fluorescence, LYP catalytic domain, selectivity assay for LMPTP inhibitor project, dose response (AID 652006); format: functional; details: read-out: IC50_Mean
# T3 sequence (Q9Y2R2 whole entry): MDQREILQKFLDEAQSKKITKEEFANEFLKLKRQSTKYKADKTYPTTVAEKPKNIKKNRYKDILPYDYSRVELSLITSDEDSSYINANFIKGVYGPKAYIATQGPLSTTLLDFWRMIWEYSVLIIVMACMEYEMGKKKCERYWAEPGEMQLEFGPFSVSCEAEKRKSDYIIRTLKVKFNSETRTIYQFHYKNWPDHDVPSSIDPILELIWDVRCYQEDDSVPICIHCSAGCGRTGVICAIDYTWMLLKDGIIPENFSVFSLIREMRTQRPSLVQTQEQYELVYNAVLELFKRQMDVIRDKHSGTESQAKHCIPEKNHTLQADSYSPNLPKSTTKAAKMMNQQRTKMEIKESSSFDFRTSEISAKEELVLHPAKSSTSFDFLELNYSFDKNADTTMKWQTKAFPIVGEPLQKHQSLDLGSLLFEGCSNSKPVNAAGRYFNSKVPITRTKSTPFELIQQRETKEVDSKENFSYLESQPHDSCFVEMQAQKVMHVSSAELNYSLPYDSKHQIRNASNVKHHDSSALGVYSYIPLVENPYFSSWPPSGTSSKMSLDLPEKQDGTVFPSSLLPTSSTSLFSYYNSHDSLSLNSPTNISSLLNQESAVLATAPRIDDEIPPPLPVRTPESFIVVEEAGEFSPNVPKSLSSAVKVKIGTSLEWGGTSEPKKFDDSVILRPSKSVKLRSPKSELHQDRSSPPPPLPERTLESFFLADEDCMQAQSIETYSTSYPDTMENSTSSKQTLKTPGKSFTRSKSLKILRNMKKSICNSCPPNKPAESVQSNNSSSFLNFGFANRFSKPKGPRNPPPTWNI
# [9] = inhibition of ARNT PAS-B/TACC3 complex formation – biochemical, AlphaScreen, cherry-picked samples, confirmation (AID 651703); format: functional, Homo sapiens;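 also: His-tagged ARNT PAS-B domain paired with GST-TACC3 E629A dimer coactivator fragment; potency of inhibitors that break up the complex and lower AlphaScreen signal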
# Sequence of DNA dC->dU-editing enzyme APOBEC-3G (Q9HC16 whole entry): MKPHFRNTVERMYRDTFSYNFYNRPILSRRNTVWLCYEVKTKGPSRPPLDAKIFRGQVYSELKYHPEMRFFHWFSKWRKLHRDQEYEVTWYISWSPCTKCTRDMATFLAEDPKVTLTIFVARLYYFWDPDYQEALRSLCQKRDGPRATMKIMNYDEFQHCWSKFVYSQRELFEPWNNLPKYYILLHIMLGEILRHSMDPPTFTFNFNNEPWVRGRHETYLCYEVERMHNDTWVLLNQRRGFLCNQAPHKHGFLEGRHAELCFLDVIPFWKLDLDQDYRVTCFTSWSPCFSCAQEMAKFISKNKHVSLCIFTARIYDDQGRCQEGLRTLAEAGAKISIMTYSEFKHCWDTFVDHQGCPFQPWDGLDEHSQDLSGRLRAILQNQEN
smiles,measurement,setting,value
Cc1ccc(-c2nnc(SC(C)C(=O)NCc3ccco3)n2C)cc1 (centres undefined),IC50,[1],> 99 µM (inactive)
same,IC50,[2],> 99 µM (inactive)
O=C(c1ccco1)N1CCN(c2cc(-c3ccccc3)nc3cc(-c4cccc(Cl)c4)nn23)CC1,EC50,[3],720 nM (active) and 2 µM (active)
same,EC50,[4],2.67 µM (active) and 3.69 µM (active)
COc1ccc(-c2ccc(/C=N/NC(=O)c3cccnc3)o2)c([N+](=O)[O-])c1,IC50,[5],3.42 µM (active)
same,IC50,[6],> 80 µM (inactive)
same,IC50,[7],12 µM (active)
same,IC50,[8],38.5 µM (inactive)
O=C(N/N=C1/CCS(=O)(=O)c2ccc(F)cc21)c1ccccn1,AC50,[9],78.4 µM (active)
